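Values below derive from 48-hour exposures of cells grown in 96-well plates, with endpoints linearly interpolated between the two concentrations bracketing the appropriate inhibition level. GI50 is the concentration that inhibits growth by half. TGI is the concentration that stops growth completely.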
Key:
Assay in all cases: DTP human tumour cell line panel, 48 h; in the data active = GI50 below about 0.43 µM; inactive = the rest
[1] = tested on: SN12C renal
[2] = tested on: CAKI-1 renal
[3] = tested on: COLO 205 colon
[4] = tested on: SR leukemia
[5] = tested on: HL-60(TB) leukemia
[6] = tested on: EKVX NSCLC
[7] = tested on: M14 melanoma
[8] = tested on: NCI-H522 lung
[9] = tested on: UACC-62 melanoma
[10] = tested on: 786-0 renal

CCCCC(C(=O)CCC(=O)Nc1ccc(Cl)c(Cl)c1)C(=O)C(C)C (stereo not drawn)
> 100 µM: TGI [1] | TGI [2] | TGI [3] | TGI [4] | TGI [5] | TGI [6] | TGI [7] | TGI [8] | TGI [9] | TGI [10]

COc1ccc(Cn2cc3c(c2-c2ccccc2)CCc2cnoc2-3)cc1OC
3.81 µM: TGI [3]
> 100 µM: TGI [1] | TGI [2] | TGI [4] | TGI [6] | TGI [7] | TGI [9] | TGI [10]
1.69 µM: TGI [5]
0.801 µM: TGI [8]
inactive: GI50 [1] 5.16 µM | GI50 [2] 0.537 µM | GI50 [3] 0.55 µM | GI50 [6] 1.66 µM | GI50 [7] 0.566 µM | GI50 [9] 0.581 µM | GI50 [10] 2.24 µM
active: GI50 [4] 0.353 µM | GI50 [5] 0.299 µM | GI50 [8] 0.229 µM

O=[N+]([O-])c1ccc(C2CC(c3ccccc3)=Nc3ccccc3S2)cc1 (stereo not drawn)
inactive: GI50 [1] > 100 µM | GI50 [2] > 100 µM | GI50 [3] > 100 µM | GI50 [4] 3.59 µM | GI50 [5] > 100 µM | GI50 [6] > 100 µM | GI50 [7] 51 µM | GI50 [8] > 100 µM | GI50 [9] > 100 µM | GI50 [10] > 100 µM
> 100 µM: TGI [1] | TGI [2] | TGI [3] | TGI [4] | TGI [5] | TGI [6] | TGI [7] | TGI [8] | TGI [9] | TGI [10]

O=C([O][Hg][CH2]C1OCCOC1[CH2][Hg][O]C(=O)c1ccccc1)c1ccccc1 (stereo not drawn)
0.23 µM: TGI [8]
9.52 µM: TGI [7]
7.41 µM: TGI [5]
30.3 µM: TGI [9]
active: GI50 [8] 0.0642 µM
3.12 µM: TGI [2]
35.5 µM: TGI [6]
27.9 µM: TGI [1]
25.5 µM: TGI [10]
inactive: GI50 [1] 13.2 µM | GI50 [2] 1.74 µM | GI50 [3] 1.82 µM | GI50 [4] 2.22 µM | GI50 [5] 2.67 µM | GI50 [6] 18.3 µM | GI50 [7] 5.2 µM | GI50 [9] 16.5 µM | GI50 [10] 12.9 µM
3.27 µM: TGI [3]
7.21 µM: TGI [4]

CCc1nc(N)nc(N)c1-c1ccc2nnn(O)c2c1
> 100 µM: TGI [1] | TGI [2] | TGI [3] | TGI [4] | TGI [5] | TGI [6] | TGI [7] | TGI [8] | TGI [9] | TGI [10]

CONC(C)=O
> 100 µM: TGI [1] | TGI [2] | TGI [3] | TGI [4] | TGI [5] | TGI [6] | TGI [7] | TGI [8] | TGI [9] | TGI [10]

N#CCCCCCOCCOCCOCCOCCOCCCCCC#N
> 100 µM: TGI [1] | TGI [2] | TGI [3] | TGI [4] | TGI [5] | TGI [6] | TGI [7] | TGI [8] | TGI [9] | TGI [10]

CCC(O)C1Cc2c(C)cc3c(c2O1)C(=O)c1ccccc1C3=O (stereo not drawn)
51.6 µM: TGI [8]
33.1 µM: TGI [3]
62.7 µM: TGI [10]
51.7 µM: TGI [5]
> 100 µM: TGI [1] | TGI [2] | TGI [4] | TGI [6] | TGI [7] | TGI [9]

O=[N+]([O-])c1ccc(C2=Nn3c(nnc3-c3ccc(Cl)cc3)SC2)o1
6.28 µM: TGI [5]
4.31 µM: TGI [3]
25.9 µM: TGI [9]
23.9 µM: TGI [6]
18.4 µM: TGI [2]
23 µM: TGI [10]
2 µM: TGI [8]
1.16 µM: TGI [4]
23.1 µM: TGI [1]
14.3 µM: TGI [7]

CCCc1cc(=O)n2c(C(=O)Nc3cccc(C(=O)OCC)c3)c(C(=O)Nc3ccc(F)cc3)sc2n1
inactive: GI50 [2] 4.95 µM | GI50 [3] 70.8 µM | GI50 [4] 51.7 µM | GI50 [5] > 140 µM | GI50 [6] > 140 µM | GI50 [7] 9.6 µM | GI50 [8] 65 µM | GI50 [9] 48.4 µM | GI50 [10] 1.43 µM
> 140 µM: TGI [3] | TGI [4] | TGI [5] | TGI [6] | TGI [8] | TGI [9]
86 µM: TGI [7]
28.2 µM: TGI [2]
5.25 µM: TGI [10]

COc1ccc2cc(C(=O)/C=C/c3ccc(N(C)C)cc3)ccc2c1
72.1 µM: TGI [6]
inactive: GI50 [1] > 100 µM | GI50 [2] 67.5 µM | GI50 [3] > 100 µM | GI50 [4] 79.1 µM | GI50 [5] > 100 µM | GI50 [6] 21 µM | GI50 [7] > 100 µM | GI50 [8] 39.1 µM | GI50 [9] > 100 µM | GI50 [10] > 100 µM
> 100 µM: TGI [1] | TGI [2] | TGI [3] | TGI [4] | TGI [5] | TGI [7] | TGI [8] | TGI [9] | TGI [10]

CC(=O)Nc1c(I)c(NC(C)=O)c(I)c(C(=O)O)c1I
inactive: GI50 [1] > 100 µM | GI50 [2] > 100 µM | GI50 [3] > 100 µM | GI50 [4] > 100 µM | GI50 [5] > 100 µM | GI50 [6] > 100 µM | GI50 [7] > 100 µM | GI50 [8] > 100 µM | GI50 [9] > 100 µM | GI50 [10] > 100 µM
> 100 µM: TGI [1] | TGI [2] | TGI [3] | TGI [4] | TGI [5] | TGI [6] | TGI [7] | TGI [8] | TGI [9] | TGI [10]

COc1cc2c(cc1Cc1cccc(Cl)c1F)c(=O)c(C(=O)O)cn2[C@@H](CO)C(C)C
17.3 µM: TGI [6]
14.9 µM: TGI [10]
inactive: GI50 [1] 3.06 µM | GI50 [2] 3.28 µM | GI50 [3] 2.64 µM | GI50 [4] 3.54 µM | GI50 [5] 2.81 µM | GI50 [6] 3.85 µM | GI50 [7] 3.65 µM | GI50 [8] 3.51 µM | GI50 [9] 2.74 µM | GI50 [10] 3.55 µM
15 µM: TGI [7]
6.95 µM: TGI [5]
13.8 µM: TGI [4]
12.7 µM: TGI [2]
11.7 µM: TGI [8]
13.7 µM: TGI [1]
10.1 µM: TGI [9]
6.29 µM: TGI [3]

CCNC(=O)Nc1ccc(Oc2ccnc3ccc4c(ccn4C)c23)cc1
active: GI50 [2] 0.236 µM
inactive: GI50 [1] 20.9 µM | GI50 [3] 29.8 µM | GI50 [4] 12.1 µM | GI50 [5] > 100 µM | GI50 [6] > 100 µM | GI50 [7] > 100 µM | GI50 [8] 43.8 µM | GI50 [9] 19.5 µM | GI50 [10] 35.5 µM
39.3 µM: TGI [9]
> 100 µM: TGI [3] | TGI [4] | TGI [5] | TGI [6] | TGI [7] | TGI [8]
43.8 µM: TGI [1]
0.961 µM: TGI [2]
96.7 µM: TGI [10]
